Data as given in paper PMC9995496, “A screen for MeCP2-TBL1 interaction inhibitors using a luminescence-based assay” (Scientific Reports, 2023).
Like-named read-outs stand apart in the source and are kept apart here. One block for each compound: values may come before it. Ends that are not written are not given here. * marks the point of attachment. Biotin = O=C1N[C@H]2[C@H](CS[C@H]2CCCCC(=O)*)N1

Legend:
[1] = test system: PRKACA-PRKAR2A interaction (SmBiT-PRKACA / LgBiT-PRKAR2A), protein kinase A; assay: PKA-based NanoLuc complementation control assay (counter-screen); type: binding, human; design: Inh (PKA): unit not given here; conditions: 20 µM; for Inh (PKA): ApexBio FDA-approved Drug Library screen
Description: To distinguish such false positives from genuine inhibitors of the interaction between MeCP2 and TBL1/TBLR1, a control screen is essential, utilising the same NanoLuc SmBiT and LgBiT fragments, but with an unrelated protein interaction pair. The interaction between PRKACA and PRKAR2A, which are the catalytic and regulatory subunits of human protein kinase A (PKA) respectively, has previously been measured using a NanoLuc complementation assay. We tested this pair of interacting proteins for activity in a NanoLuc complementation assay under our conditions. […] We therefore selected the PKA-based NanoLuc complementation as a suitable control assay. The effects of the four compounds identified from the Asinex library were assessed in the control PKA-based NanoLuc assay.
The AgeI-NotI restriction fragment (encoding EGFP) was then replaced with a codon optimized SmBiT sequence to yield the MeCP2-SmBiT expression plasmid. […]
In the screens described here, the lysate obtained from a single 15 cm plate was used for 2.5 384-well assay plates. […] After 30 min incubation at room temperature, luminescence was measured on a Tecan M1000 multi-mode plate reader. Raw luminescence reads from each well on each plate were normalized to the median luminescence signal for that plate. […] After plate normalization the robust SSMD (SSMD*) was calculated as described elsewhere. […]
Assays were performed as described above except instead of a single concentration, a threefold serial dilution ranging from 60 to 0.03 μM was tested in triplicate for each of the compounds. Half-maximal inhibitory concentrations were calculated using global nonlinear regression by fitting the response data sets of all compounds simultaneously with a four-parameter logistic curve of log inhibitor concentration versus normalized luminescence using GraphPad Prism. […] The luminescence signal of each compound concentration was normalized by dividing the luminescence signal of the DMSO control.

[2] = molecular target: T1, MeCP2-TBL1 interaction (MeCP2-SmBiT / TBL1-LgBiT) (Mus musculus, UniProt Q9QXE7); assay: MeCP2-TBL1 NanoLuc luciferase complementation assay (cell-free, extracts of transfected HEK293 cells); type: binding, human; conditions: for extent of MeCP2-TBL1 inhibition reached within the tested concentration range / separation between MeCP2-TBL1 inhibition and inhibition of the PKA control in dose response: 0.3–60 μM; for separation between MeCP2-TBL1 inhibition and inhibition of the PKA control in dose response: PKA-based assay run in parallel; for IC50: dose response 0.3–60 μM, triplicate, 30 min, luminescence normalized to DMSO, read-out: IC50, inhibition of MeCP2-TBL1 luminescence signal; for Inh (MeCP2-TBL1): ApexBio FDA-approved Drug Library screen
T1 construct: expressed in transfected cells; crude lysate used as a cell-free assay
T1 sequence (Q9QXE7 166-527): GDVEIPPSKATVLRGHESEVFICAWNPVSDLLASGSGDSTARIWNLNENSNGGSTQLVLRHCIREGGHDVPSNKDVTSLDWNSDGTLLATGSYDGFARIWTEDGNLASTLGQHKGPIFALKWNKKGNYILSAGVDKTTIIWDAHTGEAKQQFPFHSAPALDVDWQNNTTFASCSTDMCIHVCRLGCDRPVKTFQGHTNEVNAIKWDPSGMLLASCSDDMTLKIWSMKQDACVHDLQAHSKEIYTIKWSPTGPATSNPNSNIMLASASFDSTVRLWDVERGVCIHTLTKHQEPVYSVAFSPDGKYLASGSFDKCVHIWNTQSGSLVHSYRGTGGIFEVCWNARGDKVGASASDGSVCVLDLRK
Procedure, shortened: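 Cell-free split NanoLuc: lysate of HEK293 cells co-expressing the MeCP2 C-terminal half-SmBiT and TBL1 WD domain-LgBiT, mixed 1:1 with furimazine. After 30 min at room temperature, luminescence was plate-median normalized.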

[3] = test system: PRKACA-PRKAR2A interaction (SmBiT-PRKACA / LgBiT-PRKAR2A), protein kinase A; design: NanoLuc complementation counter-screen in cell extract, PRKACA with PRKAR2A, loss of luminescence, detects NanoLuc interference; conditions: counter-screen for NanoLuc interference; 0.5 h, 20 µM; inhibitor
Description: In the screens described here, the lysate obtained from a single 15 cm plate was used for 2.5 384-well assay plates. NanoLuc substrate (furimazine) (Promega, N1110) was diluted 1000-fold in passive lysis buffer (Promega, E1941) and added 1:1 to the lysate. Screening libraries were purchased from Asinex[40] and ApexBio (FDA-approved Drug Library, L1021). Compounds were dispensed using an Echo acoustic dispenser and tested at a final concentration of 20 µM in a total assay volume of 20 μl in 384-well plate format. DMSO was added to each well at a final concentration of 0.2% (v/v) and wells containing only DMSO were used as negative control. After 30 min incubation at room temperature, luminescence was measured on a Tecan M1000 multi-mode plate reader. Raw luminescence reads from each well on each plate were normalized to the median luminescence signal for that plate. […] After plate normalization the robust SSMD (SSMD*) was calculated as described elsewhere. […] The interaction between PRKACA and PRKAR2A, which are the catalytic and regulatory subunits of human protein kinase A (PKA) respectively, has previously been measured using a NanoLuc complementation assay. […] The effects of the four compounds identified from the Asinex library were assessed in the control PKA-based NanoLuc assay. […]

[4] = molecular target: T2, TBLR1 (Homo sapiens, UniProt Q9BZK7); assay: MeCP2 peptide SPOT array probed with recombinant HIS6-tagged TBLR1; type: binding; conditions: recombinant HIS6-tagged TBLR1 2 µM
T2 sequence (Q9BZK7 1-514): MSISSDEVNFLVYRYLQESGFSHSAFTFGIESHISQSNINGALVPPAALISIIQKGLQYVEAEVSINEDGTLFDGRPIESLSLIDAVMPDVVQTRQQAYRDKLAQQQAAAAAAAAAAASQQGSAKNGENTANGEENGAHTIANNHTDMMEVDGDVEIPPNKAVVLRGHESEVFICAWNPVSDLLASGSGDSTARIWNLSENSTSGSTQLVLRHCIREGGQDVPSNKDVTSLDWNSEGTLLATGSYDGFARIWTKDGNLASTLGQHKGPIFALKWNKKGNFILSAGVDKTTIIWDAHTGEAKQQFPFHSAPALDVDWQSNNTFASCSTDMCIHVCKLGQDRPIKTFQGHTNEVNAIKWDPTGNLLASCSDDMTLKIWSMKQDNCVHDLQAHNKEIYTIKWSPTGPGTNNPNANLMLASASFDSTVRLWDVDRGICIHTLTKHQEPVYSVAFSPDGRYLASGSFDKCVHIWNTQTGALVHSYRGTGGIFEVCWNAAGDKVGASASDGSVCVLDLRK
Description: The Z-factor is a statistic frequently used to assess the suitability of an assay for high throughput screening. We calculated the Z-factor of our assay in 384-well plate format using a short 12 residue MeCP2 NID derived-peptide variant as positive control and DMSO as negative control.
Western blotting was performed using antibodies against NanoLuc (Promega), MeCP2 (Sigma, M6818) and Sin3A (Abcam, Ab3479). […] The biotin at the N-terminus of these peptides was not relevant to the experiments in this work. […] The array membrane was incubated with recombinant HIS6‐tagged TBLR1 (2 µM) and immunodetection was performed with anti-HIS antibody (Sigma, H1029). Uniform synthesis efficiency across the array was ascertained by UV absorption. […] Note the shorter N-terminus and longer C-terminus of this peptide compared to the sequences used on the SPOT array. UMT026-2 was used at 50 µM when calculating the Z-factor[39].
The wild-type amino acids at these positions (Pro, Ile, Lys and Lys) make directs contacts with TBLR1. Arrows denote spots with increased binding and red dots indicate the wild-type amino acid.

Compound: C=C1C(=O)O[C@@H]2[C@H]3O[C@]3(C)CC/C=C(\C)CC[C@@H]12 [UM0142841:01, Parthenolide]
Inh (PKA) [3]: 0.7412%

Compound: Ac-ETVLPIYKRKTR-NH2 [K304Y mutant peptide]
IC50 [2]: ~40 µM
TBL1/TBLR1 binding on peptide SPOT array relative to wild type [4]: stronger TBL1/TBLR1 binder

Compound: control peptide with the R306C mutation: 35 amino acid MeCP2 NID peptide (residues 285-319) carrying the R306C mutation, N-terminal biotin (Biotin-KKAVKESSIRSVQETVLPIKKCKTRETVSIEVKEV; UniProt P51608 285-319, looked up, variant R306C) [reference compound]
effect of competitor peptide on MeCP2-TBL1 luminescence signal ([2]; peptide at 20 µM, n = 2): failed to substantially affect

More lines, main results first:

separation between MeCP2-TBL1 inhibition and inhibition of the PKA control in dose response [2]: clear separation
IC50 [2]: 18 µM
Compound: C[C@H]1CC[C@H]2[C@H](O1)c1cc(OCC(=O)NCc3ccccc3)ccc1OC2(C)C [BDG 34039627]
effect on luminescence in PKA control assay ([1]; n = 3): did not cause a reduction in luminescence
extent of MeCP2-TBL1 inhibition reached within the tested concentration range [2]: able to return the luminesce signal back to baseline

Inh (PKA) [1]: 14.6502
Inh (MeCP2-TBL1) ([2]; 20 µM): 10.5772
Compound: Oc1ccc(Nc2nc(-c3ccc(Cl)cc3)cs2)cc1 [SKI II, reference compound]

Inh (PKA) [1]: 33.916
Inh (MeCP2-TBL1) ([2]; 20 µM): 12.6933
Compound: COc1ccc(/C(Cl)=C(/C=O)c2ccc(OC)cc2)cc1 [Windorphen, reference compound]

inhibition in MeCP2-TBL1 assay compared with control PKA-based assay, individual validation ([2]; 20 µM, n = 7, t-test): statistically significantly greater
separation between MeCP2-TBL1 inhibition and inhibition of the PKA control in dose response [2]: clear separation
inhibition at 20 µM ([2]; ApexBio library screen, 20 µM, threshold SSMD* ≥ 3, read-out: inhibition in MeCP2-TBL1 assay after adjusting for activity in the PRKACA-PRKAR2A assay): ≥ 35%
Compound: LSSWVLLMK [AAT, alpha-1 antitrypsin fragment 235–243, reference compound]
extent of MeCP2-TBL1 inhibition reached within the tested concentration range [2]: able to return the luminesce signal back to baseline
